Test results published in patent US20080182895A1 (priority 2006, published 2008).
“And” between values parts separate entries of the source, which are not always exact repeats. Identical values can stand only once. Like-named read-outs stand apart in the source and are kept apart here.

Legend:
[1] = system: recombinant genotype 1b HCV NS5B enzyme variants; assay: NS5B polymerase biochemical assay, several enzymes taken together; set-up: species or system Hepatitis C virus genotype 1b
Procedure: All NS5B enzymes were expressed and purified according to the protocol for NS5B-BB7dCT21-His as described (Howe et al. (2004) Antimicrobial Agents Chem. 48:4813-21). Briefly, expression plasmids were transformed into E. coli cells and NS5B expression was initiated by the addition of isopropyl-beta-D-thiogalactopyranoside (IPTG). After 4 to 6 hours of incubation the cells were harvested and lysed. NS5B enzymes were purified by chromatography using a nickel affinity column (Talon, B D Biosciences, Clontech Laboratories, Inc., Mountain View, Calif.)) followed by a cation exchange column (Poros H S, Applied Biosystems, Foster City, Calif.).

[2] = system: Clone A cells (HCV genotype 1b replicon in Huh-7); assay: HCV replicon 3-day assay, HCV RNA by TaqMan RT-PCR; type: cell-based, Hepatitis C virus; conditions: for EC50: Hepatitis C virus, Huh-7
Procedure: The level of HCV RNA from cultures was expressed as % HCV RNA relative to control. Each point represents an average of four replicates. The effective concentration that inhibits 50% of HCV RNA levels (EC50) in the replicon-containing cells is indicated.
(§1) The levels of HCV RNA were determined using a quantitative TAQMAN® RT-PCR (PE Applied Biosystems, Foster City, Calif.).
(§2) Drug susceptibility of the replicon-containing cells to various compounds was evaluated as described previously (Howe et al. (2004) Antimicrobial Agents Chem. 48:4813-21). Briefly, cells were treated with increasing concentrations of compounds in medium containing 2% FCS and no G418 for three days at 37° C. and 5% CO2. After incubation, total RNA from the replicon-containing cells was isolated. The levels of HCV, glyceraldehyde 3-phosphate dehydrogenase (GAPDH) and ribosomal (rRNA) RNAs were quantified using TAQMAN® (PE Applied Biosystems, Foster City, Calif.) reverse transcriptase PCR reactions. The amounts of HCV, 18S ribosomal, and GAPDH RNAs in each sample were estimated by comparing the number of cycles during the exponential phase of the PCR amplification with those in the corresponding standard curves. HCV RNA standards used for the construction of the standard curve were prepared by extracting the total RNA from the Clone A cells. The RNA sample was sent to National Genetics Institute to quantify HCV RNA. Total RNA extracted from Clone A cells was quantified by O.D.260 measurement and used for construction of the standard curves of rRNA and GAPDH. The concentrations of the compounds that inhibit 50% of the HCV RNA level (EC50) were determined using the MDL® LIFE SCIENCE WORKBENCH® (LSW) Data Analysis software (MDL Information Systems, San Leandro, Calif.) in Microsoft EXCEL®. The amounts of HCV or GAPDH RNAs in the samples were expressed as HCV RNA (copies) or GAPDH (ng), respectively, per μg of total RNA using rRNA as a marker for total RNA measurement.

1b, BB7-L314F replicon = assay: Replicon variant 3-day assay; type: cell-based, Hepatitis C virus
Procedure: (§3) pBB7-replicon variant DNAs were linearized with Sca I, and in vitro transcription was performed using Ambion's […]® T7 High Yield Transcription kit (Austin, Tex.). Purified RNA transcripts were electroporated into Huh-7 cells in quadruplicates using a Biorad GENE PULSER® Electroporation System (Setting: 270V, 950 μF) (Hercules, Calif.). Stably transfected replicon variant cell lines were initially selected with 0.25 mg/ml G418 and stepped up to 1 mg/ml before further testing. One cell plate was stained with Crystal Violet to visualize the number of colonies and determine the colony formation efficiency. Individual cell clones from each plate were pooled and expanded for drug susceptibility testing.
(§4) The contribution of individual amino acid changes on drug resistance was assessed in replicon variants containing single amino acid mutations in NS5B in the background of the genotype 1b, BB7 adaptive replicon (Blight et al. (2000) Science 290:1972-74).
as §2

1b, BB7-M414V replicon = assay: Replicon variant 3-day assay; type: cell-based, Hepatitis C virus
Procedure: as §3, §4, §2

1b, BB7-M414I replicon = assay: Replicon variant 3-day assay; type: cell-based, Hepatitis C virus
Procedure: as §3, §4, §2

1b, BB7-C316Y replicon = assay: Replicon variant 3-day assay; type: cell-based, Hepatitis C virus; conditions: 1b
Procedure: as §3, §4, §2

1b, BB7-S365T replicon = assay: Replicon variant 3-day assay; type: cell-based, Hepatitis C virus
Procedure: as §3, §4, §2

796R(0.1 μM) cells = assay: HCV replicon 3-day assay in variant cells; type: cell-based, Hepatitis C virus
Procedure: (§5) All resistant cells were cultured at the indicated drug concentrations in the presence of 0.5 mg/ml G418 for at least 3 weeks before analysis.
as §1, §2

796R(1 μM) cells = assay: HCV replicon 3-day assay in variant cells; type: cell-based, Hepatitis C virus
Procedure: as §5, §1, §2

796R(10 μM) cells = assay: HCV replicon 3-day assay in variant cells; type: cell-based, Hepatitis C virus
Procedure: as §5, §1, §2

1b, BB7-C316N replicon = assay: Replicon variant assay (separate laboratory); type: cell-based; conditions: Hepatitis C virus, read-out: HCV RNA EC50 (nM) ± SD
Procedure: as §3, with “Individual cell clones from each plate were pooled and expanded for drug susceptibility testing.” left out
as §4
Drug susceptibility of the replicon-containing cells to various compounds was evaluated as described previously (Howe et al. (2004) Antimicrobial Agents Chem. 48:4813-21). […] The levels of HCV, glyceraldehyde 3-phosphate dehydrogenase (GAPDH) and ribosomal (rRNA) RNAs were quantified using TAQMAN® (PE Applied Biosystems, Foster City, Calif.) reverse transcriptase PCR reactions. […] The RNA sample was sent to National Genetics Institute to quantify HCV RNA. […]

[3] = system: 1b, BB7 replicon variants with single NS5B mutations; assay: Replicon variant assay, several variants taken together; type: cell-based, Hepatitis C virus
Procedure: as §3, §4, §2

CNC(=O)c1c(-c2ccc(F)cc2)oc2cc(N(CCO)S(C)(=O)=O)c(C3CC3)cc12 [HCV-796, 5-cyclopropyl-2-(4-fluorophenyl)-6-[(2-hydroxyethyl)(methylsulfonyl)amino]-N-methyl-1-benzofuran-3-carboxamide]
difference in drug susceptibility (in words) ([1]; M414V/I and I363V enzyme variants vs wild type enzyme): no appreciable difference in drug susceptibility
susceptibility of Asn316 enzymes compared with Cys316 enzymes (in words) ([1]; NS5B enzymes of genotype 1b isolates BK and J4, data not shown): less susceptible
Mean log10 Viral Reduction ([2]; CloneA cells, 0.7 μM compound, 3-day assay): 2.1 log10 and 2.1 ± 0.4 (0.7 μM) log10
EC50 ([2]; CloneA cells, HCV RNA, 72 hours, read-out: EC50 (μM) ± SD): 0.013 ± 0.013 µM
EC50 ([2]; hepatoma cells containing a subgenomic genotype 1b HCV replicon, read-out: EC50): 0.009 µM
Fold Resistance (1b, BB7-L314F replicon; 1b, BB7-L314F vs 1b, BB7): 1 fold
Viral Load Reduction (1b, BB7-L314F replicon; 1b, BB7-L314F, 2240 nM HCV-796, 3-day assay): 1.6 ± 0.3 log
EC50 (1b, BB7-L314F replicon; Hepatitis C virus, 72 h, 1b, BB7-L314F, 3-day assay, read-out: HCV RNA EC50 (nM) ± SD): 4 ± 2 nM
change of susceptibility to HCV-796 (in words) (1b, BB7-L314F replicon; L314F replicon vs wild type): did not change the susceptibility
Fold Resistance (1b, BB7-M414V replicon; BB7-M414V vs 1b, BB7): 3 fold
Viral Load Reduction (1b, BB7-M414V replicon; BB7-M414V, 2240 nM HCV-796, 3-day assay): 1.5 ± 0.1 log
EC50 (1b, BB7-M414V replicon; Hepatitis C virus, 72 h, BB7-M414V, 3-day assay, read-out: HCV RNA EC50 (nM) ± SD): 8 ± 1 nM
Fold Resistance (1b, BB7-M414I replicon; BB7-M414I vs 1b, BB7): 8 fold
Viral Load Reduction (1b, BB7-M414I replicon; BB7-M414I, 2240 nM HCV-796, 3-day assay): 1.5 ± 0.2 log
EC50 (1b, BB7-M414I replicon; Hepatitis C virus, 72 h, BB7-M414I, 3-day assay, read-out: HCV RNA EC50 (nM) ± SD): 23 ± 3 nM
Fold Resistance (1b, BB7-C316Y replicon; BB7-C316Y vs 1b, BB7): 166 fold
Viral Load Reduction (1b, BB7-C316Y replicon; BB7-C316Y, 2240 nM HCV-796, 3-day assay): 0.9 ± 0.2 log
EC50 (1b, BB7-C316Y replicon; Hepatitis C virus, 72 h, BB7-C316Y, 3-day assay, read-out: HCV RNA EC50 (nM) ± SD): 501 nM
Fold Resistance (1b, BB7-S365T replicon; BB7-S365T vs 1b, BB7): 212 fold
Viral Load Reduction (1b, BB7-S365T replicon; BB7-S365T, 2240 nM HCV-796, 3-day assay): 0.6 ± 0.1 log
EC50 (1b, BB7-S365T replicon; Hepatitis C virus, 72 h, BB7-S365T, 3-day assay, read-out: HCV RNA EC50 (nM) ± SD): 643 ± 168 nM
Fold Reduced Susceptibility (796R(0.1 μM) cells; 796R(0.1 μM) cells vs Clone A control): 23 fold
Mean log10 Viral Reduction (796R(0.1 μM) cells; 796R(0.1 μM) cells, 56 μM compound, 3-day assay): 1.4 log10 and 1.4 ± 0.3 (56 μM) log10
EC50 (796R(0.1 μM) cells; Hepatitis C virus, 796R(0.1 μM) cells, HCV RNA, 72 hours): 0.3 ± 0.2 µM
Fold Reduced Susceptibility (796R(1 μM) cells; 796R(1 μM) cells vs Clone A control): 618 fold
Mean log10 Viral Reduction (796R(1 μM) cells; 796R(1 μM) cells, 56 μM compound, 3-day assay): 0.7 log10 and 0.7 ± 0.2 (56 μM) log10
EC50 (796R(1 μM) cells; Hepatitis C virus, 796R(1 μM) cells, HCV RNA, 72 hours): 8 ± 5.2 µM
Fold Reduced Susceptibility (796R(10 μM) cells; 796R(10 μM) cells vs Clone A control): 6812 fold and >6812 fold
Mean log10 Viral Reduction (796R(10 μM) cells; 796R(10 μM) cells, 56 μM compound, 3-day assay): 0.5 log10 and 0.5 ± 0.3 (56 μM) log10
EC50 (796R(10 μM) cells; Hepatitis C virus, 796R(10 μM) cells, HCV RNA, 72 hours): > 88 µM
EC50 (1b, BB7-C316N replicon): 220 ± 110 nM
effect on the susceptibility to HCV-796 (in words) ([3]; I363V and S368F replicon variants): modest effect
Fold Reduced Susceptibility ([3]; M414I/V replicon variants, range): 3-8 fold
